Patent US20250195521A1 (Revolution Medicines, Inc., priority 2020, published 2025)
Where two headings read alike, the source gives them in different places.

Assays:
Assay type in all cases: cell-based, human
AsPC-1 (K-Ras G12D) [1] = experiment: Potency assay: pERK; conditions: Homo sapiens
Outline: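 Cells plated overnight, then exposed 4 h at 37 °C to 10-point 3-fold dilutions of compound, in duplicate. pERK read by AlphaLISA SureFire Ultra p-ERK1/2 lysate assay or by In-Cell Western (pERK antibody, DRAQ5 DNA normalisation). IC50 from 4-parameter sigmoidal fit of signal vs log concentration.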

NCI-H358 (K-Ras G12C) = experiment: CellTiter-Glo cell viability assay, H358; conditions: Homo sapiens, NCI-H358, 120 h
Protocol: Note—The following protocol describes a procedure for monitoring cell viability of K-Ras mutant cancer cell lines in response to a compound of the invention. Other RAS isoforms may be employed, though the number of cells to be seeded will vary based on cell line used.
Test compounds (132.5 nL) were directly dispensed into the assay plates containing cells. […] On day 5, assay plates and their contents were equilibrated to room temperature for approximately 30 minutes. […] Luminescence was measured using the PerkinElmer Enspire. Data were normalized by the following: (Sample signal/Avg. DMSO)*100. The data were fit using a four-parameter logistic fit.

AsPC-1 (K-Ras G12D) [2] = experiment: CellTiter-Glo cell viability assay, AsPC-1; conditions: Homo sapiens, ASPC1, 120 h, read-out: AsPC-1 Cell Viability IC50
Outline: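 Compounds dispensed directly onto seeded K-Ras mutant cells; plates read on day 5 after ~30 min equilibration to room temperature, by CellTiter-Glo luminescence. Signal normalized as (sample/mean DMSO)×100, then fitted to a four-parameter logistic curve.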

[3] = read-out: H358 Cell Viability IC50, K-Ras G12C, 5-day treatment

SMILES	EC50 (AsPC-1 (K-Ras G12D) [1]; ASPC1, read-out: pERK EC50)	IC50 (NCI-H358 (K-Ras G12C); [3])	IC50 (AsPC-1 (K-Ras G12D) [2])	EC50 (AsPC-1 (K-Ras G12D) [1]; ASPC1, AsPC-1 KRAS G12D, read-out: pERK EC50)	IC50 (NCI-H358 (K-Ras G12C); K-Ras G12C, 5-day treatment, read-out: H358 Cell Viability IC50)	IC50 (AsPC-1 (K-Ras G12D) [2]; K-Ras G12D, 5-day treatment)
CCn1c(-c2cccnc2[C@H](C)OC)c2c3cc(ccc31)-c1cc(O)cc(c1)C[C@H](NC(=O)[C@H](C(C)C)N(C)C(=O)CN(C)C(=O)[C@H]1CN1CCOC)C(=O)N1CCC[C@H](N1)C(=O)OCC(C)(C)C2 (stereo partly drawn) [Example 159]	< 5000 nM	< 10 nM	100 to 1000 nM			
CCn1c(-c2cccnc2[C@H](C)OC)c2c3cc(ccc31)-c1cc(O)cc(c1)C[C@H](NC(=O)[C@H](C(C)C)N(C)C(=O)CN(C)C(=O)[C@@H]1CN1CCOC)C(=O)N1CCC[C@H](N1)C(=O)OCC(C)(C)C2 (stereo partly drawn) [Example 160]	< 5000 nM	< 10 nM	100 to 1000 nM			
CCn1c(-c2cccnc2[C@H](C)OC)c2c3cc(ccc31)-c1cc(O)cc(c1)C[C@H](NC(=O)[C@H](C(C)C)N(C)C(=O)CN(C)C(=O)[C@H]1CN1CCCOC)C(=O)N1CCC[C@H](N1)C(=O)OCC(C)(C)C2 (stereo partly drawn) [Example 201]	< 5000 nM	< 10 nM	100 to 1000 nM			
CCn1c(-c2cc(N3CCN(C)CC3)cnc2[C@H](C)OC)c2c3cc(ccc31)-c1cc(O)cc(c1)C[C@H](NC(=O)[C@H](C1CCCC1)N(C)C(=O)CN(C)C(=O)[C@H]1CN1)C(=O)N1CCC[C@H](N1)C(=O)OCC(C)(C)C2 [Example 209, (2R)—N-(2-(((1S)-1-cyclopentyl-2-(((6^3S,4S)-1^1-ethyl-25-hydroxy-12-(2-((S)-1-methoxyethyl)-5-(4-methylpiperazin-1-yl)pyridin-3-yl)-10,10-dimethyl-5,7-dioxo-6^1,6^2,6^3,6^4,6^5,6^6-hexahydro-1^1H-8-oxa-1 (5,3)-indola-6 (1,3)-pyridazina-2 (1,3)-benzenacycloundecaphane-4-yl)amino)-2-oxoethyl) (methyl)amino)-2-oxoethyl)-N-methylaziridine-2-carboxamide]	< 5000 nM	< 10 nM	< 10 nM			
CCn1c(-c2cccnc2[C@H](C)OC)c2c3cc(ccc31)-c1cc(O)cc(c1)C[C@H](NC(=O)[C@H](C1CCCC1)N1CC[C@]3(CCN(C(=O)[C@@H]4N[C@@H]4C4CC4)C3)C1=O)C(=O)N1CCC[C@H](N1)C(=O)OCC(C)(C)C2 [Example 214, (2S)-2-cyclopentyl-2-((S)-7-((2R,3R)-3-cyclopropylaziridine-2-carbonyl)-1-oxo-2,7-diazaspiro[4.4]nonan-2-yl)-N-((6^3S,4S)-1^1-ethyl-25-hydroxy-1^2-(2-((S)-1-methoxyethyl)pyridin-3-yl)-10,10-dimethyl-5,7-dioxo-6^1,6^2,6^3,6^4,6^5,6^6-hexahydro-1^1H-8-oxa-1 (5,3)-indola-6 (1,3)-pyridazina-2 (1,3)-benzenacycloundecaphane-4-yl) acetamide]				< 5000 nM	10 to 100 nM	10 to 100 nM
CCn1c(-c2cccnc2[C@H](C)OC)c2c3cc(ccc31)-c1cc(O)cc(c1)C[C@H](NC(=O)[C@H](C(C)C)N(C)C(=O)CN(C)C(=O)[C@@]1(C)CN1)C(=O)N1CCC[C@H](N1)C(=O)OCC(C)(C)C2 [Example 256]	< 5000 nM	10 to 100 nM	100 to 1000 nM			
CCn1c(-c2cccnc2[C@H](C)OC)c2c3cc(ccc31)-c1cc(O)cc(c1)C[C@H](NC(=O)[C@H](C(C)C)N(C)C(=O)CN(C)C(=O)[C@]1(C)CN1)C(=O)N1CCC[C@H](N1)C(=O)OCC(C)(C)C2 [Example 257]	< 5000 nM	10 to 100 nM	100 to 1000 nM			
CCn1c(-c2cccnc2[C@H](C)OC)c2c3cc(ccc31)-c1cc(O)cc(c1)C[C@H](NC(=O)[C@H](C(C)C)N(C)C(=O)CN(C)C(=O)[C@@H]1N[C@@H]1C(F)(F)F)C(=O)N1CCC[C@H](N1)C(=O)OCC(C)(C)C2 [Example 258]	< 5000 nM	10 to 100 nM	100 to 1000 nM			
CCn1c(-c2cccnc2[C@H](C)OC)c2c3cc(ccc31)-c1cc(O)cc(c1)C[C@H](NC(=O)[C@H](C(C)C)N(C)C(=O)CN(C)C(=O)[C@H]1N[C@H]1C(F)(F)F)C(=O)N1CCC[C@H](N1)C(=O)OCC(C)(C)C2 [Example 259]	< 5000 nM	10 to 100 nM	100 to 1000 nM			
CCn1c(-c2cccnc2[C@H](C)OC)c2c3cc(ccc31)-c1cc(O)cc(c1)C[C@H](NC(=O)[C@H](C(C)C)N(C)C(=O)CN(C)C(=O)[C@H]1N[C@@H]1C(F)(F)F)C(=O)N1CCC[C@H](N1)C(=O)OCC(C)(C)C2 [Example 261]	< 5000 nM	< 10 nM	100 to 1000 nM			
CC[C@H]1N[C@H]1C(=O)N(C)CC(=O)N(C)[C@H](C(=O)N[C@H]1Cc2cc(O)cc(c2)-c2ccc3c(c2)c(c(-c2cccnc2[C@H](C)OC)n3CC)CC(C)(C)COC(=O)[C@@H]2CCCN(N2)C1=O)C(C)C [Example 262]	< 5000 nM	10 to 100 nM	100 to 1000 nM			
CC[C@@H]1N[C@@H]1C(=O)N(C)CC(=O)N(C)[C@H](C(=O)N[C@H]1Cc2cc(O)cc(c2)-c2ccc3c(c2)c(c(-c2cccnc2[C@H](C)OC)n3CC)CC(C)(C)COC(=O)[C@@H]2CCCN(N2)C1=O)C(C)C [Example 263]	< 5000 nM	10 to 100 nM	100 to 1000 nM			
CCn1c(-c2cccnc2[C@H](C)OC)c2c3cc(ccc31)-c1cc(O)cc(c1)C[C@H](NC(=O)[C@H](C(C)C)N(C)C(=O)CN(C)C(=O)[C@@H]1N[C@@H]1C(C)C)C(=O)N1CCC[C@H](N1)C(=O)OCC(C)(C)C2 [Example 264]	< 5000 nM	10 to 100 nM	100 to 1000 nM			
CCn1c(-c2cccnc2[C@H](C)OC)c2c3cc(ccc31)-c1cc(O)cc(c1)C[C@H](NC(=O)[C@H](C(C)C)N(C)C(=O)CN(C)C(=O)[C@H]1N[C@H]1C(C)C)C(=O)N1CCC[C@H](N1)C(=O)OCC(C)(C)C2 [Example 265]	< 5000 nM	10 to 100 nM	100 to 1000 nM			
CCn1c(-c2cccnc2[C@H](C)OC)c2c3cc(ccc31)-c1cc(O)cc(c1)C[C@H](NC(=O)[C@H](C(C)C)N(C)C(=O)CN(C)C(=O)[C@H]1CN1CC(=O)N(C)C)C(=O)N1CCC[C@H](N1)C(=O)OCC(C)(C)C2 (stereo partly drawn) [Example 270]	< 5000 nM	10 to 100 nM	100 to 1000 nM			
CCn1c(-c2cccnc2[C@H](C)OC)c2c3cc(ccc31)-c1cc(O)cc(c1)C[C@H](NC(=O)[C@H](C(C)C)N(C)C(=O)CN(C)C(=O)[C@H]1CN1CCCC#N)C(=O)N1CCC[C@H](N1)C(=O)OCC(C)(C)C2 (stereo partly drawn) [Example 273]	< 5000 nM	< 10 nM	100 to 1000 nM			
CCn1c(-c2cccnc2[C@H](C)OC)c2c3cc(ccc31)-c1cc(O)cc(c1)C[C@H](NC(=O)[C@H](C(C)C)N(C)C(=O)CN(C)C(=O)[C@@H]1CN1CCCC#N)C(=O)N1CCC[C@H](N1)C(=O)OCC(C)(C)C2 (stereo partly drawn) [Example 274]	< 5000 nM	< 10 nM	100 to 1000 nM			
CCn1c(-c2cccnc2[C@H](C)OC)c2c3cc(ccc31)-c1cc(O)cc(c1)C[C@H](NC(=O)[C@H](C(C)C)N(C)C(=O)CN(C)C(=O)[C@@H]1CN1C1COC1)C(=O)N1CCC[C@H](N1)C(=O)OCC(C)(C)C2 (stereo partly drawn) [Example 276]	< 5000 nM	10 to 100 nM	1000 to 10000 nM			
CCn1c(-c2cccnc2[C@H](C)OC)c2c3cc(ccc31)-c1cc(O)cc(c1)C[C@H](NC(=O)[C@H](C(C)C)N(C)C(=O)CN(C)C(=O)[C@H]1CN1CC1COC1)C(=O)N1CCC[C@H](N1)C(=O)OCC(C)(C)C2 (stereo partly drawn) [Example 277]	< 5000 nM	10 to 100 nM	100 to 1000 nM			
